Laboratory results taken from patent EP0073865B1, “Derivatives of iodothyronine compounds and their use in an assay for the free iodothyronine compounds” (AMERSHAM INTERNATIONAL plc, priority 1981, dated 1983).

Columns and labels:
TBG = target: T1, TBG (Homo sapiens, UniProt P05543); experiment: Displacement of 125I-T4 tracer from TBG:anti-TBG binding reagent (binding strength relative to T4); conditions: for binding to TBG (in words): I-125 labelled tracer
T1 construct: from tissue; host or cells: human serum (resin stripped)
T1 sequence (P05543 21-415): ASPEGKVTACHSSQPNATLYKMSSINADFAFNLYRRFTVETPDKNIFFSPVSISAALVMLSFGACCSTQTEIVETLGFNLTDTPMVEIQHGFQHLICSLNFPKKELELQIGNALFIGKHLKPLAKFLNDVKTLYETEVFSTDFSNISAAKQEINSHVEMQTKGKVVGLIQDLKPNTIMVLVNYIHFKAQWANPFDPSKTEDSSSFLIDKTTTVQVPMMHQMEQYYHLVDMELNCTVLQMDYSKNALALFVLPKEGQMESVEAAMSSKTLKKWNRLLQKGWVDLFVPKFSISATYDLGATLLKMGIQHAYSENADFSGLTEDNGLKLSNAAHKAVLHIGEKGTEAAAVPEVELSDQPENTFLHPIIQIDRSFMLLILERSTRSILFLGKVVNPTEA
Procedure: (§1) Method for estimation of T4.EDTA binding strength to TBG and prealbumin relative to that of T4
(§2) Pre-precipitated antiserum (binding reagent) to either TBG or prealbumin is incubated with a serum source of TBG or prealbumin, so that the T4 binding protein is isolated on the binding reagent. Tracer ^125I-T4 is added to the resulting complex and is thus purified. The displacement of the tracer ^125I―T4, by varying concentrations of T4 and T4.EDTA, from the TBG or prealbumin, can then be studied. The results can be used to estimate the differences in binding affinity between T4 and T4.EDTA for the two T4 binding proteins.
• 2.1 Preparation of ^125I-T4:TBG:anti-TBG binding reagent • 2.1.1. Binding reagent preparation • 15% Donkey anti-sheep) in phosphate • 2% TBG Antiserum) buffer + 0.05% BSA
Equal quantities of the above solutions are mixed and rotated overnight at 4° so that the final concentrations in the binding reagent are 7.5% donkey anti-sheep, and 1% TBG antiserum. Centrifugation at 900 rpm, decantation and resuspension in fresh buffer are carried out twice to wash the reagent.
1 ml of resin stripped human serum and 20 ml of the above binding reagents are mixed for 1 hour at room temperature. Centrifugation, decantation and resuspension in fresh buffer (phosphate + 0.05% BSA) are carried out twice.
Typically 10 ml ofTBG:anti-TBG binding reagents, 28 ml of phosphate buffer + 0.05% BSA, and 2 ml of ^125I―T4 tracer solution (0.1 µCi high specific activity T4 per ml in phosphate buffer + 0.05% BSA) are mixed for 1 hour at room temperature. […]
(§3) Thus the percentage bound of the tracer at different T4 and T4.EDTA concentrations, can be determined in the two systems.
(§4) Tracer percentage bound is plotted against T4 and T4.EDTA concentrations, and from these curves an estimate of the non-specific binding can be made. The data can then be re-calculated, using this blank correction, plotted, and the T4 and T4.EDTA concentrations corresponding to a range of tracer percentage bound values can be read off the curve. […]

[1] = Stability of the tracer compound in water / assay buffer; format: physicochemical; conditions: on dilution into the assay buffer / contact with water
TBPA = target: T2, TBPA (Homo sapiens, UniProt P02766); experiment: Displacement of 125I-T4 tracer from TBPA:anti-TBPA binding reagent (binding strength relative to T4); conditions: binding to TBPA (prealbumin), displacement of 125I-T4, 37°C
T2 construct: from tissue; host or cells: normal serum
Procedure: as §1, §2
This is prepared as for the anti-TBG binding reagent except that equal volumes of 30% donkey anti-rabbit second antibody and 4% TBPA antiserum solutions were mixed to give final concentrations of 15% donkey anti-rabbit, and 2% anti-TBPA. […]
as §3, §4

T4 antiserum = experiment: Affinity constant with respect to T4 antiserum, relative to T4; format: binding
[2] = test system: Antisera (having low T4 cross reactivity); experiment: Binding to antisera having low T4 cross reactivity, compared with T3

binding to TBG (in words) (TBG) | affinity constant as % of the affinity constant of T4 (TBG; binding to TBG, displacement of 125I-T4, 37°C) | affinity constant as % of the affinity constant of T4 (TBPA) | SMILES | stability in water [1] | affinity constant with respect to T4 antiserum as % of that of T4 (T4 antiserum) | binding to Antisera compared with T3 [2]
no significant tendency to bind to TBG | 3.5% | 2.7% | O=C(O)CN(CCN(CC(=O)O)CC(=O)NC(Cc1cc(I)c(Oc2cc(I)c(O)c(I)c2)c(I)c1)C(=O)O)CC(=O)O (centres unmarked) [T4.EDTA, 1-{3',5'-di-iodo-4' (3",5"-di-iodo-4"-Hydroxyphenoxy)phenyl} 2-carboxy-6,9-dicarboxymethyl-4-oxo-3,6,9,-triazaundecan-11-oic acid] | stable in water | 90.4% | –
– | – | – | O=C(O)CN(CCN(CC(=O)O)CC(=O)NC(Cc1cc(I)c(Oc2ccc(O)c(I)c2)c(I)c1)C(=O)O)CC(=O)O (centres unmarked) [T3.EDTA, 2-carboxy-6,9-dicarboxymethyl-1 3',5' di-iodo-4' (3"-iodo-4"-hydroxy)phenoxy phenyl 4-oxo-3,6,9-triazaundecan-11-oic acid.] | – | – | equal, or better, binding than T3 itself
binds appreciably to TBG | – | – | COC(=O)[C@H](Cc1cc(I)c(Oc2cc(I)c(O)c(I)c2)c(I)c1)NC(C)=O [N-Acetyl-thyroxine-methyl ester, N-acetyl-thyroxine-methyl ester, reference compound] | only gives useful assay results within hours of dilution into the assay buffer | – | –
